Measured values as given in ChEMBL document CHEMBL1201862, “PubChem BioAssay data set” (2004).
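Interpolation was linear, between the two tested concentrations surrounding the appropriate level; five concentrations were tested over 48 hours in 96-well plates. GI50: concentration for 50% inhibition of growth.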 Activity calls are given as the source filed them. Rule as the data show it: active = GI50 up to about 1.1 µM and inactive = higher.

How the values were obtained:
Experiment in all cases: NCI anticancer screen, dose series, 48 h
COLO 205 = test system: COLO 205
HOP-62 = test system: HOP-62
UACC-62 = test system: UACC-62
MDA-MB-435 = test system: MDA-MB-435
CCRF-CEM = test system: CCRF-CEM
HCC 2998 = test system: HCC 2998
SF-295 = test system: SF-295
A549 = test system: A549
EKVX = test system: EKVX
SK-MEL-2 = test system: SK-MEL-2
SW-620 = test system: SW-620
UO-31 = test system: UO-31
SN12C = test system: SN12C
MCF7 = test system: MCF7
NCI-H23 = test system: NCI-H23
HCT-116 = test system: HCT-116
PC-3 = test system: PC-3
MOLT-4 = test system: MOLT-4
NCI-H460 = test system: NCI-H460
M14 = test system: M14
T47D = test system: T47D
SNB-75 = test system: SNB-75
SK-OV-3 = test system: SK-OV-3
IGROV-1 = test system: IGROV-1
SF-539 = test system: SF-539
CAKI-1 = test system: CAKI-1
KM12 = test system: KM12
HT-29 = test system: HT-29
OVCAR-8 = test system: OVCAR-8
U-251 = test system: U-251
ACHN = test system: ACHN
DU-145 = test system: DU-145
UACC-257 = test system: UACC-257
SK-MEL-5 = test system: SK-MEL-5
786-0 = test system: 786-0
TK-10 = test system: TK-10
SNB-19 = test system: SNB-19
HCT-15 = test system: HCT-15
LOX IMVI = test system: LOX IMVI
Malme-3M = test system: Malme-3M
HL-60 = test system: HL-60
SR = test system: SR
OVCAR-3 = test system: OVCAR-3
NCI/ADR-RES = test system: NCI/ADR-RES
OVCAR-5 = test system: OVCAR-5
Hs-578T = test system: Hs-578T
MDA-MB-231 = test system: MDA-MB-231
NCI-H226 = test system: NCI-H226
MDA-N = test system: MDA-N
SF-268 = test system: SF-268
SK-MEL-28 = test system: SK-MEL-28
K562 = test system: K562
RXF 393 = test system: RXF 393
OVCAR-4 = test system: OVCAR-4
RPMI-8226 = test system: RPMI-8226
HOP-92 = test system: HOP-92
A498 = test system: A498
NCI-H522 = test system: NCI-H522

Measured: GI50

CC(C)CC(NC(=O)C(O)C(N)Cc1ccccc1)C(=O)O (centres undefined)
inactive: COLO 205 > 100 µM | HOP-62 > 100 µM | UACC-62 > 100 µM | MDA-MB-435 > 100 µM | CCRF-CEM > 100 µM | HCC 2998 > 100 µM | SF-295 > 100 µM | A549 > 100 µM | EKVX > 100 µM | SK-MEL-2 > 100 µM | SW-620 > 100 µM | UO-31 56.4 µM | SN12C > 100 µM | MCF7 > 100 µM | NCI-H23 > 100 µM | HCT-116 > 100 µM | PC-3 > 100 µM | MOLT-4 > 100 µM | NCI-H460 > 100 µM | M14 > 100 µM | T47D > 100 µM | SNB-75 > 100 µM | SK-OV-3 > 100 µM | IGROV-1 > 100 µM | SF-539 > 100 µM | CAKI-1 > 100 µM | KM12 > 100 µM | HT-29 > 100 µM | OVCAR-8 > 100 µM | U-251 > 100 µM | ACHN > 100 µM | DU-145 > 100 µM | UACC-257 > 100 µM | SK-MEL-5 > 100 µM | 786-0 > 100 µM | TK-10 > 100 µM | SNB-19 > 100 µM | LOX IMVI > 100 µM | Malme-3M > 100 µM | HL-60 > 100 µM | SR > 100 µM | OVCAR-3 > 100 µM | NCI/ADR-RES > 100 µM | OVCAR-5 > 100 µM | Hs-578T > 100 µM | MDA-MB-231 > 100 µM | NCI-H226 > 100 µM | MDA-N > 100 µM | SF-268 > 100 µM | SK-MEL-28 > 100 µM | K562 > 100 µM | RXF 393 > 100 µM | OVCAR-4 > 100 µM | RPMI-8226 > 100 µM | HOP-92 > 100 µM
> 100 µM: HCT-15

Cc1cc(NC2=NCCO2)c2c(c1C)CCCC2
16.7 µM: HCT-15
active: SF-539 0.0536 µM | HOP-92 0.906 µM
inactive: COLO 205 17.1 µM | HOP-62 13.3 µM | UACC-62 15.2 µM | MDA-MB-435 14.4 µM | CCRF-CEM 19 µM | HCC 2998 15.2 µM | SF-295 12.6 µM | A549 29.6 µM | EKVX 23.6 µM | SW-620 27.1 µM | UO-31 1.91 µM | SN12C 22.2 µM | MCF7 14.8 µM | NCI-H23 18 µM | HCT-116 15.2 µM | MOLT-4 17.4 µM | NCI-H460 11.7 µM | M14 11.1 µM | T47D 13.6 µM | SNB-75 19.2 µM | SK-OV-3 20.4 µM | IGROV-1 21.8 µM | KM12 13.2 µM | HT-29 13.9 µM | OVCAR-8 25.4 µM | U-251 18.5 µM | ACHN 10.1 µM | DU-145 27.5 µM | UACC-257 9.33 µM | SK-MEL-5 15.7 µM | 786-0 17.2 µM | TK-10 33.7 µM | SNB-19 11.2 µM | Malme-3M 11.6 µM | HL-60 10.6 µM | SR 18.5 µM | NCI/ADR-RES 18.1 µM | OVCAR-5 17.1 µM | Hs-578T 10.8 µM | MDA-MB-231 24 µM | NCI-H226 1.27 µM | SF-268 18.9 µM | SK-MEL-28 15.4 µM | RXF 393 39.3 µM | OVCAR-4 15.7 µM | A498 13.6 µM | RPMI-8226 12.6 µM

CC(=O)NC(CCCOC(C)=O)C(=O)NC(CCCOC(C)=O)C(=O)NC(CCCOC(C)=O)C(=O)NC(Cc1ccc([N+](=O)[O-])cc1)C(=O)NCC(=O)OCc1ccccc1 (centres undefined)
inactive: COLO 205 > 100 µM | HOP-62 > 100 µM | UACC-62 > 100 µM | MDA-MB-435 > 100 µM | CCRF-CEM > 100 µM | HCC 2998 > 100 µM | SF-295 > 100 µM | A549 > 100 µM | EKVX > 100 µM | SK-MEL-2 > 100 µM | SW-620 > 100 µM | UO-31 > 100 µM | SN12C > 100 µM | MCF7 > 100 µM | NCI-H23 > 100 µM | NCI-H522 > 100 µM | HCT-116 > 100 µM | PC-3 > 100 µM | MOLT-4 > 100 µM | NCI-H460 > 100 µM | M14 > 100 µM | T47D > 100 µM | SNB-75 > 100 µM | SK-OV-3 > 100 µM | IGROV-1 > 100 µM | SF-539 > 100 µM | CAKI-1 > 100 µM | KM12 > 100 µM | HT-29 > 100 µM | OVCAR-8 > 100 µM | U-251 > 100 µM | ACHN > 100 µM | DU-145 > 100 µM | UACC-257 > 100 µM | SK-MEL-5 > 100 µM | 786-0 > 100 µM | TK-10 > 100 µM | SNB-19 > 100 µM | LOX IMVI > 100 µM | Malme-3M > 100 µM | SR 74 µM | OVCAR-3 > 100 µM | NCI/ADR-RES > 100 µM | OVCAR-5 > 100 µM | Hs-578T > 100 µM | MDA-MB-231 > 100 µM | NCI-H226 > 100 µM | SF-268 > 100 µM | SK-MEL-28 > 100 µM | K562 > 100 µM | RXF 393 > 100 µM | OVCAR-4 > 100 µM | A498 > 100 µM | RPMI-8226 > 100 µM | HOP-92 > 100 µM
> 100 µM: HCT-15

CC(C)C1=CC23CCC4C(C)(C(=O)O)CCCC4(C)C2CC1C1C(=O)N(c2ccc(Cc4ccc(N5C(=O)C6C7CC8C9(C)CCCC(C)(C(=O)O)C9CCC8(C=C7C(C)C)C6C5=O)cc4)cc2)C(=O)C13 (centres undefined)
10.6 µM: HCT-15
inactive: COLO 205 7.06 µM | HOP-62 11.6 µM | UACC-62 11 µM | MDA-MB-435 3.55 µM | CCRF-CEM 5.41 µM | HCC 2998 10.1 µM | A549 3.72 µM | EKVX 6.58 µM | SK-MEL-2 12 µM | SW-620 11.4 µM | UO-31 17.1 µM | SN12C 10.1 µM | MCF7 5.13 µM | NCI-H23 1.93 µM | NCI-H522 8.18 µM | HCT-116 4.39 µM | PC-3 3.78 µM | MOLT-4 5.5 µM | M14 9.44 µM | T47D 18.1 µM | SF-539 4.16 µM | KM12 5.97 µM | HT-29 3.17 µM | OVCAR-8 5.26 µM | U-251 3.94 µM | ACHN 5.41 µM | DU-145 10.3 µM | SK-MEL-5 12.4 µM | 786-0 10.9 µM | TK-10 15.6 µM | SNB-19 5.85 µM | Malme-3M 16.7 µM | HL-60 9.35 µM | SR 5.75 µM | OVCAR-3 10.7 µM | OVCAR-5 20.8 µM | Hs-578T 10.7 µM | MDA-MB-231 15.7 µM | NCI-H226 13.6 µM | MDA-N 8.93 µM | SF-268 8.81 µM | SK-MEL-28 10.9 µM | K562 7.87 µM | RXF 393 13 µM | OVCAR-4 14.4 µM | A498 8.51 µM | RPMI-8226 9.14 µM | HOP-92 20.1 µM

COc1ccc(-c2coc3cc(O)cc(O)c3c2=O)cc1 [BIOCHANIN]
inactive: COLO 205 > 10 µM | HOP-62 > 10 µM | UACC-62 > 10 µM | MDA-MB-435 > 10 µM | CCRF-CEM > 10 µM | A549 > 10 µM | SK-MEL-2 > 10 µM | SW-620 > 10 µM | MCF7 > 10 µM | NCI-H23 > 10 µM | MOLT-4 > 10 µM | NCI-H460 > 10 µM | M14 > 10 µM | T47D > 10 µM | SNB-75 > 10 µM | SK-OV-3 > 10 µM | IGROV-1 > 10 µM | CAKI-1 > 10 µM | U-251 > 10 µM | ACHN > 10 µM | SK-MEL-5 > 10 µM | 786-0 > 10 µM | Malme-3M > 10 µM | HL-60 > 10 µM | SR > 10 µM | NCI/ADR-RES > 10 µM | OVCAR-5 > 10 µM | SF-268 > 10 µM | SK-MEL-28 > 10 µM | K562 > 10 µM | RXF 393 > 10 µM | OVCAR-4 > 10 µM | RPMI-8226 > 10 µM
